{"source": "paper PMC8002023", "about": "“3D Pharmacophore-Based Discovery of Novel KV10.1 Inhibitors with Antiproliferative Activity” (Cancers, 2021)", "key": {"[1]": {"tested_on": "Salmonella typhimurium strain TA100", "assay": "Salmonella/microsomal reverse mutation (Ames) assay, TA100", "design": "key to bacterial background lawn: slightly reduced bacterial background; moderately reduced bacterial background; extremely reduced bacterial background; bacterial background is absent", "settings": "for mutagenic response: TA100, 0.0158–0.158 mg/plate, −S9 and +S9; for induction factor (IF): IF ≥ 2 positive; for cytotoxic concentration to bacterial strain: TA100, −/+ S9 metabolic activation", "description": "Mutagenicity of compounds ZVS-08 and 8 was tested with the Salmonella/microsomal reverse mutation (Ames) assay on Salmonella typhimurium strains TA98 and TA100 without and with external metabolic activation according to the OECD guidelines (OECD TG 471) with minor modifications. Briefly, 100 µL of ZVS-08 and 8 (0.158, 0.5, 1.58, 5, 15.8, and 50 mg/mL corresponding to the final concentration of 0.0158, 0.05, 0.158, 0.5, 1.58, and 5 mg/plate, respectively), […] bacterial culture of S. typhimurium (overnight culture at 37 °C), and […] of phosphate buffer (for assays without metabolic activation) or 10% S9 mix (for assays with metabolic activation) were added to 2 mL of molten top agar (supplemented with histidine/biotin, final concentration 0.05 mM), gently mixed and poured onto minimal agar plates. The number of His+ revertants was counted after 48 h (TA100) and 72 h (TA98) of incubation at 37 °C. Three plates were used per treatment point. The mutagenic potential of the compounds was expressed as an induction factor (IF), where IF = (number of revertants in the presence of the compound)/(number of revertants in solvent control). Additionally, each plate was checked for possible toxic effects of tested compounds. […] 4-nitroquinoline- N-oxide (4-NQNO; 0.25 μg/plate) for TA98 and sodium azide (NaN3; 0.25 μg/plate) for TA100 were used as positive controls without S9 metabolic activation, while benzo[a]pyrene (B[a]P; 2.5 μg/plate) was used as positive controls for both bacterial strains with S9 metabolic activation."}, "MCF-7 cells": {"tested_on": "MCF-7 cells", "assay": "Cell growth in 2D culture (Incucyte confluence, 72 h), MCF-7", "format": "cell-based", "settings": "for pIC50: high KV10.1 and low hERG expression", "description": "Cell lines MCF-7 (DSMZ ACC 115), PANC-1 (DSMZ ACC 783), and hTERT-RPE1 (ATCC CRL 4000) were grown in the media recommended by the cell provider in a humidified atmosphere at 5% CO2 and 37 °C. For cell growth experiments, 10^4 cells/well were seeded in 96-well flat bottom culture plates (Corning) and allowed to grow for 24 h. The compounds were then added in the corresponding growth medium, and the plate was imaged every hour for 72 h (two images per well and eight wells per condition in two independent experiments for compound 8 and five for ZVS-08 and compound 1) in an Incucyte system (Sartorius/Essen biosciences). Culture confluence was determined in the phase contrast images and is expressed as percent confluence per well. The growth was then normalised to the value in the absence of compounds.\nKV10.1 inhibitors with a favourable pharmacological profile are promising candidates for cancer therapy. To investigate the activity of the new compounds on cancer cells proliferation, compounds ZVS-08, 1 and 8 were tested on MCF-7, a breast cancer cell line showing high KV10.1 expression and low hERG expression, and on Panc1, a pancreatic cancer cell line with undetectable KV10.1 expression and high level of hERG expression. hTERT-RPE1 cells served as a non-cancer cell line. hTERT-RPE1 cells show transient physiological expression of Kv10.1 that begins during the G2 phase of the cell cycle and extends through mitosis as present in normal cells. Different concentrations of the compounds were added to the culture medium and the growth of the cell was monitored over 72 h (Figure 14)."}}, "note": "pIC50: −log10 of the molar value. Entries after “also recorded” stand apart in the source; their conditions may differ."}
{"compound": "CN(C)CC(O)COc1ccc(Nc2ccc(C(F)(F)F)cc2[N+](=O)[O-])cc1", "note": "(stereo not drawn) [ZVS-08]", "values": [{"measurement": "mutagenic response", "setting": "[1]", "result": "no mutagenic response"}, {"measurement": "Average number of revertant colonies (mean ± SD)", "setting": "[1]; TA100, +S9, 0.0158 mg/plate", "result": "102.67 ± 15.01"}, {"measurement": "induction factor (IF)", "setting": "[1]; TA100, +S9, 0.0158 mg/plate", "result": 1.02}, {"measurement": "Average number of revertant colonies (mean ± SD)", "setting": "[1]; TA100, +S9, 0.05 mg/plate", "result": "81.67 ± 14.57"}, {"measurement": "induction factor (IF)", "setting": "[1]; TA100, +S9, 0.05 mg/plate", "result": 0.81}, {"measurement": "Average number of revertant colonies (mean ± SD)", "setting": "[1]; TA100, +S9, 0.158 mg/plate", "result": "71.00 ± 7.21"}, {"measurement": "bacterial background lawn", "setting": "[1]; TA100, +S9, 0.158 mg/plate", "result": "a"}, {"measurement": "induction factor (IF)", "setting": "[1]; TA100, +S9, 0.158 mg/plate", "result": 0.71}, {"measurement": "Average number of revertant colonies (mean ± SD)", "setting": "[1]; TA100, +S9, 0.5 mg/plate", "result": 0}, {"measurement": "bacterial background lawn", "setting": "[1]; TA100, +S9, 0.5 mg/plate", "result": "b"}, {"measurement": "Average number of revertant colonies (mean ± SD)", "setting": "[1]; TA100, +S9, 1.58 mg/plate", "result": 0}, {"measurement": "bacterial background lawn", "setting": "[1]; TA100, +S9, 1.58 mg/plate", "result": "d"}, {"measurement": "Average number of revertant colonies (mean ± SD)", "setting": "[1]; TA100, +S9, 5 mg/plate", "result": 0}, {"measurement": "bacterial background lawn", "setting": "[1]; TA100, +S9, 5 mg/plate", "result": "d"}, {"measurement": "Average number of revertant colonies (mean ± SD)", "setting": "[1]; TA100, -S9, 0.0158 mg/plate", "result": "114.00 ±2.00"}, {"measurement": "induction factor (IF)", "setting": "[1]; TA100, -S9, 0.0158 mg/plate", "result": 1.29}, {"measurement": "Average number of revertant colonies (mean ± SD)", "setting": "[1]; TA100, -S9, 0.05 mg/plate", "result": "99.67 ± 16.80"}, {"measurement": "induction factor (IF)", "setting": "[1]; TA100, -S9, 0.05 mg/plate", "result": 1.12}, {"measurement": "Average number of revertant colonies (mean ± SD)", "setting": "[1]; TA100, -S9, 0.158 mg/plate", "result": "81.00 ± 5.29"}, {"measurement": "bacterial background lawn", "setting": "[1]; TA100, -S9, 0.158 mg/plate", "result": "a"}, {"measurement": "induction factor (IF)", "setting": "[1]; TA100, -S9, 0.158 mg/plate", "result": 0.91}, {"measurement": "Average number of revertant colonies (mean ± SD)", "setting": "[1]; TA100, -S9, 0.5 mg/plate", "result": 0}, {"measurement": "bacterial background lawn", "setting": "[1]; TA100, -S9, 0.5 mg/plate", "result": "c"}, {"measurement": "Average number of revertant colonies (mean ± SD)", "setting": "[1]; TA100, -S9, 1.58 mg/plate", "result": 0}, {"measurement": "bacterial background lawn", "setting": "[1]; TA100, -S9, 1.58 mg/plate", "result": "d"}, {"measurement": "Average number of revertant colonies (mean ± SD)", "setting": "[1]; TA100, -S9, 5 mg/plate", "result": 0}, {"measurement": "bacterial background lawn", "setting": "[1]; TA100, -S9, 5 mg/plate", "result": "d"}, {"measurement": "cytotoxic concentration to bacterial strain", "setting": "[1]", "result": "≥ 0.5", "unit": "mg/plate"}, {"measurement": "pIC50", "setting": "MCF-7 cells; Homo sapiens, MCF7, 72 h", "result": 5.17}, {"measurement": "pIC50", "setting": "MCF-7 cells", "result": "~5.30"}]}
{"compound": "O=[N+]([O-])c1cc(C(F)(F)F)ccc1Nc1ccc(OCC(O)CN2CCOCC2)cc1", "note": "(stereo not drawn) [Compound 8]", "values": [{"measurement": "mutagenic response", "setting": "[1]", "result": "no mutagenic response"}, {"measurement": "cytotoxic concentration to bacterial strain", "setting": "[1]", "result": "≥ 0.5", "unit": "mg/plate"}, {"measurement": "effect on growth of MCF-7 cells", "setting": "MCF-7 cells; concentrations tested", "result": "ineffective; also recorded: inactive"}]}
